Data taken from US10383948B2, “Anti-cMet antibody drug conjugates and methods for their use” (AbbVie Inc., priority 2016, dated 2019).

Columns and labels:
NCI-H820 = assay: Cytotoxicity assay (CellTiter-Glo, 6 days); assay type: cell-based, human; conditions: NCI-H820 lung cancer; relative to untreated control at ≤1 μg/mL in a six day proliferation
Method: (§1) Tumor cells were plated at 2000-5000 cells/well in 180 μL growth medium containing 10% FBS in 96-well plates, and cultured at 37° C. in a humidified incubator with 5% C02. The following day, titrations of antibodies or ADCs in 20 μL were added and cells were incubated for 6 days. Cell viability was determined using a CellTiter-Glo Luminescent Cell Viability Assay (Promega) according to the manufacturer's instructions.
as §1, with “of” for “of antibodies or”

[1] = test system: NHBE (normal bronchial epithelial); assay: Cytotoxicity assay (CellTiter-Glo, 6 days); assay type: cell-based; conditions: NHBE (bronchial epithelial) non-tumor; relative to untreated control at ≤1 μg/mL in a six day proliferation
Method: as §1, with “instructions. A non-binding, irrelevant negative control ADC conjugated to MMAE was also included in all assays to confirm that cell killing was antigen dependent.” for “instructions.”
as §1, with “of” for “of antibodies or”, “instructions. A non-binding, irrelevant negative control ADC conjugated to MMAE was also included in all assays to confirm that cell killing was antigen-dependent.” for “instructions.”

HT-29 = assay: Cytotoxicity assay (CellTiter-Glo, 6 days); assay type: cell-based, human; conditions: HT-29 colorectal cancer
Method: as §1, with “instructions. A non-binding, irrelevant negative control ADC conjugated to MMAE was also included in all assays to confirm that cell killing was antigen dependent.” for “instructions.”

IM-95 = assay: Cytotoxicity assay (CellTiter-Glo, 6 days); assay type: cell-based, human; conditions: IM-95 gastric cancer
Method: as §1, with “instructions. A non-binding, irrelevant negative control ADC conjugated to MMAE was also included in all assays to confirm that cell killing was antigen dependent.” for “instructions.”

MCF-7 = assay: Cytotoxicity assay (CellTiter-Glo, 6 days); assay type: cell-based, human; conditions: MCF-7 breast cancer; relative to untreated control at ≤1 μg/mL in a six day proliferation
Method: as §1, with “instructions. A non-binding, irrelevant negative control ADC conjugated to MMAE was also included in all assays to confirm that cell killing was antigen dependent.” for “instructions.”

MDA-MB-231 = assay: Cytotoxicity assay (CellTiter-Glo, 6 days); assay type: cell-based, human; conditions: MDA-MB-231 breast cancer; relative to untreated control at ≤1 μg/mL in a six day proliferation
Method: as §1, with “instructions. A non-binding, irrelevant negative control ADC conjugated to MMAE was also included in all assays to confirm that cell killing was antigen dependent.” for “instructions.”

SNU-5 = assay: Cytotoxicity assay (CellTiter-Glo, 6 days); assay type: cell-based, human
Method: as §1, with “instructions. A non-binding, irrelevant negative control ADC conjugated to MMAE was also included in all assays to confirm that cell killing was antigen dependent.” for “instructions.”

SNU-620 = assay: Cytotoxicity assay (CellTiter-Glo, 6 days); assay type: cell-based, human; conditions: SNU-620 gastric cancer
Method: as §1, with “instructions. A non-binding, irrelevant negative control ADC conjugated to MMAE was also included in all assays to confirm that cell killing was antigen dependent.” for “instructions.”

CTG-0162 NSCL PDX = assay: Patient-derived xenograft, tumor growth delay; assay type: in vivo, NSG mice; conditions: PDX CTG-0162 (NSCL); every seven days, six doses; median time to 1 cm^3 vs control
Method: (§2) Tumor fragments of 3 to 5 mm^3 at passage 3 (P3) were implanted subcutaneously in the right rear flank of NSG mice (The Jackson Laboratory) with a trochar. ABBV-399 and ABT-700 PBD were administered every seven days for a total of six doses. […] For all groups, tumor volumes were plotted only for the duration that allowed the full set of animal to remain on study. If animals had to be taken off study, the remaining animals were monitored for tumor growth until they reached defined end-points.

CTG-0167 NSCL PDX = assay: Patient-derived xenograft, tumor growth delay; assay type: in vivo, NSG mice; conditions: PDX CTG-0167 (NSCL); every seven days, six doses; median time to 1 cm^3 vs control
Method: as §2

CTG-0387 colorectal PDX = assay: Patient-derived xenograft, tumor growth delay; assay type: in vivo, NSG mice; conditions: PDX CTG-0387 (Colorectal); every seven days, six doses; median time to 1 cm^3 vs control
Method: as §2

CTG-0652 colorectal PDX = assay: Patient-derived xenograft, tumor growth delay; assay type: in vivo, NSG mice; conditions: PDX CTG-0652 (Colorectal); every seven days, six doses; median time to 1 cm^3 vs control
Method: as §2

[2] = test system: LG1049 patient-derived xenograft; assay: NSCLC patient-derived xenograft, Kaplan-Meier; assay type: in vivo, NSG mice; conditions: ABBV-399 every four days x6, ABT-700 every seven days x6, FIGS. 10A-10B
Text: Tumor fragments of 3 to 5 mm^3 at passage 3 (P3) were implanted subcutaneously in the right rear flank of NSG mice (The Jackson Laboratory) with a trochar. For all groups, tumor volumes were plotted only for the duration that allowed the full set of animal to remain on study. If animals had to be taken off study, the remaining animals were monitored for tumor growth until they reached defined end-points. Efficacy is depicted on a Kaplan-Meier plot for (A) LG0703 and (B) LG1049 models as fractions reaching the indicated tumors volumes following therapy.

[3] = test system: NCI-H441 lung cancer xenografts; assay: NCI-H441 xenograft efficacy; assay type: in vivo, mice; conditions: both every four days, six doses; dose-dependent; FIG. 11B
Text: Food and water were available ad libitum.
Each experimental group included 8-10 animals.

NSCLC adenocarcinoma = assay: Phase 1 overall response versus H score; assay type: in vivo, human; conditions: IHC scores of 225 or greater
Text: (§3) The IHC score was obtained using the protocol described in Example 17.

[4] = test system: NSCLC squamous cell carcinoma; assay: Phase 1 overall response versus H score; assay type: in vivo, human; conditions: three patients, 2.7 mg/kg once every 3 weeks, IHC scores between 150 to 224
Text: as §3

[5] = test system: Hs746T gastric cancer xenografts; assay: Hs746T xenograft efficacy
Method: Female SCID, SCID-Beige and nude mice were obtained from Charles River (Wilmington, Mass.) and housed at ten mice per cage. The body weight upon arrival was 20-22 g. Food and water were available ad libitum. Mice were acclimated to the animal facilities for a period of at least one week prior to commencement of experiments. Animals were tested in the light phase of a 12-hr light: 12-hr dark schedule (lights on at 06:00 hours).
Tumor volumes are depicted as mean±S.E.M.

[6] = relative to untreated control at ≤1 μg/mL in a six day proliferation
[7] = read-out: ABBV-399 IC50, cell proliferation assay, Table 7B

“ABBV-399: ADC comprised of the cMet targeting antibody ABT-700 conjugated to MMAE through a valine citrulline (vc) linker” was tested, and the “Maximal Killing” value (NCI-H820) was 87%, the “Maximal Killing” value [1] was 10% and the “Maximal Killing” value (HT-29; [6]) was 70%. The IC50 (HT-29; [7]) was 9 nM, the “Maximal Killing” value (IM-95; [6]) was 53% and the IC50 (IM-95; [7]) was 1.7 nM. The “Maximal Killing” value (MCF-7) was 0%, the “Maximal Killing” value (MDA-MB-231) was 0% and the “inhibition of proliferation” value (SNU-5; MET-amplified SNU-5 gastric cancer cells, FIG. 4) was “inhibited proliferation”. For the same substance, the “Maximal Killing” value (SNU-5; SNU-5 gastric cancer, relative to untreated control at ≤1 μg/mL in a six day proliferation) was 85%, the IC50 (SNU-5; read-out: ABBV-399 IC50, SNU-5 gastric cancer, cell proliferation assay, Table 7B) was 0.28 nM and the “Maximal Killing” value (SNU-620; [6]) was 80%. The IC50 (SNU-620; [7]) was 0.17 nM, the “TGD (%) tumor growth delay” value (CTG-0162 NSCL PDX) was 88% and the “TGD (%) tumor growth delay” value (CTG-0167 NSCL PDX) was 0%. The “TGD (%) tumor growth delay” value (CTG-0387 colorectal PDX) was 0%, the “TGD (%) tumor growth delay” value (CTG-0652 colorectal PDX) was 350% and the “in vivo activity, comparison” value [2] was “more active than ABT-700 alone”. For the same substance, the “in vivo activity, comparison” value [3] was “more active than ABT-700 alone”, the “response” value (NSCLC adenocarcinoma; four patients, 2.7 mg/kg Q3W and erlotinib) was “partial responses” and the “response” value (NSCLC adenocarcinoma; two patients, once every two weeks) was “either a partial response or a complete response”. The “response” value [4] was “partial responses”, the “in vivo activity, comparison” value ([5]; ABT-700 every seven days, ABBV-399 every four days, dose-dependent, FIG. 11A) was “more active than ABT-700 alone” and the “tumor response” value ([5]; tumors relapsed after ABT-700 treatment, FIG. 12A) was “regression”.
